{"source": "patent US20080125498A1", "about": "“TREATMENT OF NEURODEGENERATIVE DISEASES AND CONDITIONS USING PAR1 ANTAGONISTS” (priority 2001, published 2008)", "key": {"NMDA receptor [1]": {"system": "NMDA receptor", "experiment": "Whole cell patch recording of NMDA-evoked currents in hippocampal slice CA1 pyramidal neurons", "type": "cell-based, rat"}, "NMDA receptor [2]": {"system": "NMDA receptor", "experiment": "Whole cell patch recording of NMDA-evoked currents in hippocampal CA1 pyramidal cells of wild-type and PAR1-/- mice", "type": "cell-based, mouse", "settings": "100 micromolar APV, wild-type and PAR1-/- mice"}, "PAR1 [3]": {"system": "PAR1", "experiment": "Free intracellular calcium in cultured astrocytes (Fluo-3 AM)", "type": "cell-based, mouse"}, "PAR1 [4]": {"system": "PAR1", "type": "cell-based, rat"}, "PAR1 [5]": {"system": "PAR1", "experiment": "PI hydrolysis in hippocampal slices", "type": "cell-based, mouse", "settings": "pre-incubation with antagonist peptide", "text": "PAR1 is a seven transmembrane G-protein coupled receptor that stimulates G-alpha-q to initiate phosphatidyl inositol (PI) hydrolysis. To ensure that PAR1 is functional in regions of the brain that are subject to ischemic damage in the mouse transient focal ischemia model, we tested the ability of several activators of PAR1 to initiate PI hydrolysis (Chung et al., 1997) in the hippocampus and striatum.\nSince tPA activates plasminogen to form plasmin, we tested whether exogenously applied tPA could activate endogenous plasminogen in brain slices to form plasmin and activate PAR1."}, "NR1 subunit": {"system": "NR1 subunit", "experiment": "NMDA receptor subunit immunoblots of thrombin-treated brain membranes", "type": "biochemical, rat", "settings": "0.1-1 mM SFLLRN", "protocol": "NMDA receptor subunit immunoblots. Human embryonic kidney (HEK) cells were maintained in DMEM supplemented with 0.5 mM glutamine, 1 mM pyruvate, penicillin, streptomycin, and 10% fetal bovine serum in a humidified environment with 5% CO2, and transfected with 1 microgram/ml of NR1 or 1:2 microgram/ml NR1:NR2 cDNA. Cells were washed in ice-cold HEPES buffered saline (HBS), scraped on ice, and membranes isolated by centrifugation at 12,000×g. […] Adult rat brain regions were dissected, frozen in liquid nitrogen, homogenized in ice-cold HEPES buffered saline (HBS), centrifuged, and stored at −20° C. Membranes were resuspended in HBS and treated with thrombin or buffer for 30 min at 37° C. Samples were centrifuged, and the membrane pellet resuspended in 2% sodium dodecylsulphate (SDS), 62.5 mM Tris, 10% glycerol, 5% beta-mercaptoethanol, 0.05% bromophenol blue (pH 6.8); some samples were treated with IOU DNase for 10 min at 37° C. SDS/polyacrylamide gel electrophoresis (SDS/PAGE) and protein blotting to Immobilon-P membranes was performed as described (Lau and Huganir, Differential tyrosine phosphorylation of N-methyl-D-aspartate receptor subunits. J Biol Chem 270: 20036-20041, 1995). Membranes were blocked for 30 min in 0.2 M Tris base, 1.37 M NaCl, pH 7.4, containing 5% nonfat dry milk, and incubated overnight at 4° C. in primary antibodies: NR1 mAb54.1 (gift from Dr. S. Heinemann, Salk Institute, La Jolla Calif.), NR1 alt-C-terminal (Upstate Biotechnology, Lake Placid, N.Y.), NR2A C-terminal (Chemicon, Temecula, Calif.), or NR2B C-terminal (Upstate Biotechnology). Membranes were washed 3×, and incubated with HRP-conjugated goat anti-mouse or goat anti-rabbit antibodies (1:10,000), washed 3×, and developed using enhanced chemiluminescence. The percent of receptor cleaved by thrombin was determined using densitometry."}, "NMDA receptor [6]": {"system": "NMDA receptor", "experiment": "Two electrode voltage clamp of recombinant NMDA receptors with or without PAR1 in Xenopus oocytes", "type": "cell-based, Xenopus laevis", "protocol": "Expression and recording of NMDA and PAR1 receptor function in Xenopus laevis oocvtes. cRNA was synthesized from linearized template cDNA according to manufacturer specifications (Ambion, Austin, Tex.). Xenopus oocytes were removed from ovaries of female frogs anesthetized with 0.3% 3-aminobenzoic acid ethylester. Groups of 20-30 stage V-VI oocytes were incubated in 292 U/ml Worthington (Freehold, N.J.) Type IV collagenase for 2 hours with slow shaking. The oocytes were rinsed in Barth's solution, and stored at 17° C. in Barth's solution supplemented with 100 microgram/ml gentamycin and 40 microgram/ml streptomycin. Control oocytes were injected with 3 ng NR1 subunit and 7 ng NR2B subunit. Other oocytes were injected with the NMDA receptor subunits plus 3 ng PAR1 cRNA. Two electrode voltage clamp recordings were made 3-7 days post-injection. Oocytes were continually perfused with recording solution (in mM, 90 NaCl, 1 KCl, 10 HEPES, pH 7.4) and held under voltage clamp at −30 to −50 mV with an OC-725B amplifier (Warner Instruments, Hamden, Conn.). Recording solution was supplemented with 1.0 mM CaCl2 during initial impalement of the oocytes and subsequently 0.5 mM BaCl2 during recording to reduce the calcium-activated chloride current endogenous to oocytes. […] NMDA receptor currents were evoked by 20 micromolar glutamate/10 micromolar glycine perfused for 0.5-1 minute. […] Expression of PAR1 protein was verified by a thrombin or SFLLRN-stimulated rapidly desensitizing inward current at −30 mV that reflects the Ca^2+-activated Cl^− current endogenous to the oocyte. To test the ability of thrombin to modify NMDA receptor function in oocytes, recordings of receptor function were made both before and after a 15-60 min incubation in recording solution supplemented with thrombin in Eppendorf tubes at room temperature. […] Oocytes with responses less than 50 nA were not included in the analysis."}}, "note": "Square brackets hold non-standard residues; d marks the D form. * marks the point of attachment. Phe(4-guanidino) = N=C(N)Nc1ccc(C[C@H](N)C(=O)O)cc1; Phe(4-F) = N[C@@H](Cc1ccc(F)cc1)C(=O)O; trans‑cinnamoyl = O=C(/C=C/c1ccccc1)*"}
{"compound": "N[C@H](CCCP(=O)(O)O)C(=O)O", "note": "[APV, D-2-amino-5-phosphonovaleric acid, reference compound]", "values": [{"measurement": "block of responses to NMDA/glycine", "setting": "NMDA receptor [1]; 100 micromolar APV", "result": "blocked the response"}, {"measurement": "block of NMDA receptor response following thrombin treatment", "setting": "NMDA receptor [2]", "result": "abolished"}]}
{"compound": "Nc1ncnc2c1ncn2[C@@H]1O[C@H](COP(=O)(O)OP(=O)(O)OP(=O)(O)O)[C@@H](O)[C@H]1O", "note": "[ATP]", "values": [{"measurement": "free intracellular calcium", "setting": "PAR1 [3]; cultured astrocytes from PAR1-/- knockout mice", "result": "increases free intracellular calcium"}, {"measurement": "free intracellular calcium", "setting": "PAR1 [3]; cultured astrocytes from wild type mice", "result": "increases free intracellular calcium"}]}
{"compound": "NC(N)=NCCC[C@H](NC(=O)[C@@H]1CCCN1C(=O)[C@H](N)Cc1ccccc1)C(=O)CCl", "note": "[PPACK, D-Phe-Pro-Arg-chloromethylketone]", "values": [{"measurement": "response magnitude to thrombin (F/Fo) with PPACK", "setting": "PAR1 [4]", "result": "1.1±0.04", "unit": "fold"}]}
{"compound": "N-trans-cinnamoyl-p-fluoroPhe-p-guanidinoPhe-Leu-Arg-Arg-NH2 ({trans‑cinnamoyl}-[Phe(4-F)][Phe(4-guanidino)]LRR-NH2; SMILES CC(C)C[C@H](NC(=O)[C@H](Cc1ccc(NC(=N)N)cc1)NC(=O)[C@H](Cc1ccc(F)cc1)NC(=O)/C=C/c1ccccc1)C(=O)N[C@@H](CCCNC(=N)N)C(=O)N[C@@H](CCCNC(=N)N)C(N)=O) [PAR1 antagonist peptide, reference compound]", "values": [{"measurement": "inhibition of PI hydrolysis produced by thrombin and plasmin", "setting": "PAR1 [5]", "result": "inhibited PI hydrolysis"}]}
{"compound": "SFLLRN [reference compound]", "values": [{"measurement": "potentiation of the response to pressure applied NMDA plus glycine", "setting": "NMDA receptor [1]; 30 micromolar SFLLRN, n=9", "result": "1.76±0.19", "unit": "fold"}, {"measurement": "stimulation of NR1 cleavage", "setting": "NR1 subunit", "result": "did not stimulate cleavage"}, {"measurement": "Fluo-3 fluorescence in soma and dendrites", "setting": "PAR1 [4]; 3 nM thrombin or 10 micromolar SFLLRN, TTX/APV present, subset of neurons", "result": "robust increase"}, {"measurement": "potentiation of NMDA receptor current after SFLLRN stimulation of PAR1", "setting": "NMDA receptor [6]; NR1-1a/NR2B plus PAR1, 10-30 micromolar SFLLRN, n=9", "result": "1.41±0.11", "unit": "fold"}, {"measurement": "SFLLRN potentiation of NR1-1a/NR2A receptors", "setting": "NMDA receptor [6]; oocytes with PAR1, 10-30 micromolar SFLLRN, n=6", "result": "1.85±0.1", "unit": "fold"}]}
